Here are results for 13 molecules from PMC8721105, “Novel Trypanocidal Inhibitors that Block Glycosome Biogenesis by Targeting PEX3–PEX19 Interaction” (Frontiers in Cell and Developmental Biology, 2021).

One may read the EC50 as the midpoint of the concentration-response curve.

The target of series [1] is TbPEX3–TbPEX19 interaction (Trypanosoma brucei brucei, UniProt Q383Q3). Put plainly: AlphaScreen TbPEX3–TbPEX19 inhibitor screening and dose response. In kind it is binding. As to conditions: for Activity scores (robust z-scores) / Note (activity in the screen): primary AlphaScreen screen, 10 μM compound. The method, then: The above solutions were prepared in the reaction buffer [0.5% BSA v/v, 0.05% Tween 80 v/v, 0.2 mM DTT, PBS (pH7.4)] on the day of assay, diluting the compounds from 1 mM stocks in DMSO. Compounds were incubated with the proteins for 30 min at room temperature (RT). Five microliters of AlphaScreen Nickel-chelate acceptor beads (cat. no. 6760619C, PerkinElmer®) and AlphaScreen Glutathione donor beads (cat. no. 6765300, PerkinElmer®) were distributed to the mixture consecutively, with a 15-min interval. The complete 25-μl reaction solutions were incubated for 45 min at RT in the dark, and Alpha signals were captured with Cytation 5 plate reader (BioTek®) with the gain value set at 180. Schematic representation of the experiment setup of the high-throughput screening assays was prepared with BioRender.com.
Following initial hit selection, 10 μM of drugs were tested with GST-His (54 nM) and TbPEX19/TbPEX3 (5 nM) in smaller scale, and the level of signal was normalized (in %) and compared.
A general note: Alpha assays give light when donor and acceptor beads are brought close together.

For series [2] the following is noted: ref ChemBridge, cited from earlier work; for Hacc (hydrogen bond acceptor) / Hdon (hydrogen bond donor): provided by the compound library supplier; for LogSw: supplier data.
A short description of series [3]: Cytotoxicity test on HepG2 cells. As to conditions: human.
The next series deals with GST-TbPEX3d44. Put plainly: NMR saturation transfer difference (STD) with GST-TbPEX3. Format: binding, Trypanosoma brucei. Conditions: 10 μM protein, 300 µM ligand. The method, then: NMR saturation transfer difference (STD) experiments ([Mayer and Meyer, 1999]) were carried out on a Bruker AVIII 600-MHz spectrometer equipped with a cryoprobe and a SampleJet auto sampler. One-dimensional (1D) and STD spectra were acquired at 298 K. Compounds were dissolved in DMSO-d6 to a final concentration of 50 mM. STD experiments with GST-TbPEX3, TbPEX19-His, and GST-His were performed in PBS (pH 7.4), 10% D2O at a protein concentration of 10 μM, and a ligand concentration of 300 µM. Saturation time and interscan delay within STD experiments were set to 2 and 2.5 s, respectively.

Another series relates to T. brucei BSF427. Put plainly: T. brucei cell viability, resazurin-based assay. The arrangement: species or system Trypanosoma brucei. As to conditions: positive control. As to the method: BSF strain Lister 427 (termed hereafter as BSF427) and cell line 90-13 (stably expressing Tet repressor) were used in this study. BSF cells were grown in HMI-11 medium and maintained in logarithmic phase [below 2 × 10^6 cells/ml as described in [Kalel et al. (2019)]]. Genomically integrated stable transfections were performed with NotI-linearized plasmid constructs (pGN1-TbPEX11), which integrate into the spacer region of the ribosomal RNA repeat locus in the genome of cell line 90-13, and the clones were selected using blasticidin as described previously ([Kalel et al., 2015]). Expression of TbPEX11-GFP was confirmed with fluorescence microscopy following induction tests (data not shown) with a serial dilution of tetracycline, and minimal concentration (5 ng/ml) of tetracycline was used to achieve expression of the protein in more than 80% of the cells.
T. brucei BSF427 and compound dilutions were mixed in 1 : 1 (v/v) ratio to total volume of 200 μl, to reach final concentrations of 2 × 10^3 cells/ml and 0.19–100 μM of inhibitors, in quadruplicates in 96-well plates. Culture medium with no cells was used as negative control and cultures without presence of compounds as positive control representing normal rate of cell growth. Cells were grown at 37°C in an incubator with humidified air containing 5% CO2 for 3 days. Cell viabilities were measured quantitatively using resazurin dye, by adding 25-µl resazurin (0.1 mg/ml in HBSS) to each well, and the mixture incubated for 6 h in the incubator. Fluorescence emission was detected at 570 and 585 nm after excitation at 530 nm, and fluorescence at 570 nm was subtracted from 585 nm. The inhibition curves were fitted with normalized fluorescence signal (in percentage) against concentration of compounds in Log10 scale using GraphPad Prism, and best fit was used for EC50 estimation. Chemical structures were drawn with ChemDraw 20.0.

Structures are written as SMILES. “Also recorded” adds a separate entry of the source. Where two headings read alike, the source gives them in different places.

Chain of TbPEX3–TbPEX19 interaction (Q383Q3 entry or part of it, other chains not shown): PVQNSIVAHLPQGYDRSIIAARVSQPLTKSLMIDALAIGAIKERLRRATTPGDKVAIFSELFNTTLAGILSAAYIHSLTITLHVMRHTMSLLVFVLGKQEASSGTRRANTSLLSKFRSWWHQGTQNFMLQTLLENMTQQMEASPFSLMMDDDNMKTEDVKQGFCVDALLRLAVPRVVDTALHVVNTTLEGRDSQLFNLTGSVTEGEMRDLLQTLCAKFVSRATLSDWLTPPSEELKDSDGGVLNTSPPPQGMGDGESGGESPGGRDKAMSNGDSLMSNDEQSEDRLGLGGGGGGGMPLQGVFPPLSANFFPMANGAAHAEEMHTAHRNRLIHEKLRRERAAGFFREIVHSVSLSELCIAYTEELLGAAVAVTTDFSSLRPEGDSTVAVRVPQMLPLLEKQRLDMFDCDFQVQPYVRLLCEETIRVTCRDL

As to `CNC(=O)c1cccc(NC(=O)C2CCOC(C)(C)C2)c1C` (stereo not drawn) [Compound 31960442, 2,2-dimethyl-N-{2-methyl-3-[(methylamino)carbonyl]phenyl}tetrahydro-2H-pyran-4-carboxamide], in series [1], the “Activity scores (robust z-scores)” value was 0.2733 and the “Note (activity in the screen)” value is given as “Not active”. Further, in series [2], the “Hacc (hydrogen bond acceptor)” value is recorded as 3, the “Hdon (hydrogen bond donor)” value is on record as 2 and the LogSw was -2.90.

As for `CC(=O)Nc1ccccc1NC(=O)CN(C)Cc1cnn(C)c1` [Compound 67602110, N~1~-[2-(acetylamino)phenyl]-N~2~-methyl-N~2~-[(1-methyl-1H-pyrazol-4-yl)methyl]glycinamide], in series [1], the “Activity scores (robust z-scores)” value was 0.7988 and the “Note (activity in the screen)” value is given as “Not active”. For the same molecule, in series [2], the “Hacc (hydrogen bond acceptor)” value was 4, the “Hdon (hydrogen bond donor)” value is 2 and the LogSw was -2.21.

With `CC(C)c1cc(C2CCCN2C(=O)c2ccc(-c3nnn(C)n3)cc2)no1` (stereo not drawn) [Compound 54866350, 5-(4-{[2-(5-isopropylisoxazol-3-yl)pyrrolidin-1-yl]carbonyl}phenyl)-2-methyl-2H-tetrazole], in series [1], the “Activity scores (robust z-scores)” value amounted to 2.5166 and the “Note (activity in the screen)” value was “Not active”. In addition, in series [2], the “Hacc (hydrogen bond acceptor)” value is on record as 6, the “Hdon (hydrogen bond donor)” value was 0 and the LogSw was -2.94.

In series [3], `CN[C@@H]1C[C@H](N)[C@@H](O)[C@H](O[C@H]2O[C@H](CO)[C@H](O)[C@@H]3O[C@@]4(O[C@@H]23)O[C@H]([C@H](N)CO)[C@H](O)[C@H](O)[C@H]4O)[C@H]1O` [Hygromycin, reference compound] had an EC50 of 16200 nM.

As for `CC(CCNC(=O)N1CCC(Oc2ncccn2)CC1)n1ccnc1` (stereo not drawn) [Compound 6, N-[3-(1H-imidazol-1-yl)butyl]-4-(pyrimidin-2-yloxy)piperidine-1-carboxamide], in series [1], the “Inhibition of TbPEX3–PEX19 interaction (in words)” value was “did not inhibit”. In addition, in the series on GST-TbPEX3d44, the “STD NMR effect with GST-TbPEX3” value is recorded as “show STD signal; also recorded: consistent STD effects”. Moreover, in series [2], the “Hacc (hydrogen bond acceptor)” value was 5, the “Hdon (hydrogen bond donor)” value is 1 and the LogSw is on record as -2.34.

Regarding `CCN(Cc1nccn1C)Cc1nccn1-c1ccc(OC)cc1` [Compound 26410952, N-{[1-(4-methoxyphenyl)-1H-imidazol-2-yl]methyl}-N-[(1-methyl-1H-imidazol-2-yl)methyl]ethanamine], the “Note (activity in the screen)” value in series [1] is on record as “Active, require characterization”. Further, in series [2], the “Hacc (hydrogen bond acceptor)” value is on record as 4, the “Hdon (hydrogen bond donor)” value was 0 and the LogSw was -3.12.

For `CCNC(=O)c1cc(NC(=O)C2CCOCC2)ccc1Cl` [Compound 5, N-{4-chloro-3-[(ethylamino)carbonyl]phenyl}tetrahydro-2H-pyran-4-carboxamide], the “Inhibition of TbPEX3–PEX19 interaction (in words)” value in series [1] is “did not inhibit”. Also, the “STD NMR effect with GST-TbPEX3” value in the series with GST-TbPEX3d44 is listed as “show STD signal; also recorded: consistent STD effects”. Also, in series [2], the “Hacc (hydrogen bond acceptor)” value was 3, the “Hdon (hydrogen bond donor)” value is given as 2 and the LogSw is -2.58.

Take `COc1cccc(N2CCN(C(=O)c3cccc(-c4cn[nH]c4)c3)CC2)c1` [Compound 92838291, 1-(3-methoxyphenyl)-4-[3-(1H-pyrazol-4-yl)benzoyl]piperazine]: in series [1], the “Activity scores (robust z-scores)” value is 1.4019 and the “Note (activity in the screen)” value is on record as “Not active”. Further, in series [2], the “Hacc (hydrogen bond acceptor)” value was 3, the “Hdon (hydrogen bond donor)” value is 1 and the LogSw is -3.20.

Consider `COc1cc(CN2CCCN(Cc3ccccn3)CC2)cc2c1OCO2` [Compound 25282511, 1-[(7-methoxy-1,3-benzodioxol-5-yl)methyl]-4-(pyridin-2-ylmethyl)-1,4-diazepane], for which the “Note (activity in the screen)” value in series [1] is recorded as “Active, require characterization”. Also, in series [2], the “Hacc (hydrogen bond acceptor)” value is listed as 6, the “Hdon (hydrogen bond donor)” value is reported as 0 and the LogSw is -0.93.

In the case of `O=C(Cc1cccs1)N1C[C@H](O)[C@@H](N2CCCCC2)C1` (racemic) [Compound 41601289, rac-(3S,4S)-4-piperidin-1-yl-1-(2-thienylacetyl)pyrrolidin-3-ol], in series [1], the “Activity scores (robust z-scores)” value came to 0.3122 and the “Note (activity in the screen)” value is “Not active”. In series [2], the “Hacc (hydrogen bond acceptor)” value is on record as 3, the “Hdon (hydrogen bond donor)” value was 1 and the LogSw is given as -2.24.

Turning to `Cc1cc(=O)n(CCN(Cc2ccccn2)CC2CCCO2)c(=O)[nH]1` (stereo not drawn) [Compound 54483906, 6-methyl-3-{2-[(pyridin-2-ylmethyl)(tetrahydrofuran-2-ylmethyl)amino]ethyl}pyrimidine-2,4(1H,3H)-dione], the “Note (activity in the screen)” value in series [1] is on record as “Active, require characterization”. Moreover, in series [2], the “Hacc (hydrogen bond acceptor)” value was 5, the “Hdon (hydrogen bond donor)” value was 1 and the LogSw is listed as -1.32.

As to `Cc1ccc(C(=O)Nc2ccc(S(=O)(=O)O)c3cc(S(=O)(=O)O)cc(S(=O)(=O)O)c23)cc1NC(=O)c1cccc(NC(=O)Nc2cccc(C(=O)Nc3cc(C(=O)Nc4ccc(S(=O)(=O)O)c5cc(S(=O)(=O)O)cc(S(=O)(=O)O)c45)ccc3C)c2)c1` [suramin, reference compound], the EC50 worked out at 37 nM with T. brucei BSF427 (Trypanosoma brucei, 72 h, read-out: T. brucei EC50, BSF427, 3 days of incubation, resazurin) and 37.1 nM in the series with T. brucei BSF427 (read-out: T. brucei EC50, BSF427, 3 days of incubation, resazurin).

For the molecule `COCCN(Cc1cn2ccc(C)cc2n1)Cc1nccs1` [Compound 79442734, (2-methoxyethyl)[(7-methylimidazo[1,2-a]pyridin-2-yl)methyl](1,3-thiazol-2-ylmethyl)amine], the “Note (activity in the screen)” value in series [1] was “Active, require characterization”. In series [2], the “Hacc (hydrogen bond acceptor)” value was 4, the “Hdon (hydrogen bond donor)” value was 0 and the LogSw was -2.43.
